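How tested: cells in 96-well plates exposed to compound for 48 hours at five concentrations. GI50 is the concentration that inhibits growth by half.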 Calls of active or inactive are those of the source. Cut-off read from the data, not from the text of the source: active = GI50 up to about 1.1 µM and inactive = higher.
Tests used:
Test in all cases: NCI tumour cell line growth inhibition, 48 h
SF-268 = tested on: SF-268
MDA-MB-435 = tested on: MDA-MB-435
HT-29 = tested on: HT-29
UACC-257 = tested on: UACC-257
HCC 2998 = tested on: HCC 2998
SF-539 = tested on: SF-539
OVCAR-8 = tested on: OVCAR-8
COLO 205 = tested on: COLO 205
U-251 = tested on: U-251
SK-MEL-28 = tested on: SK-MEL-28
NCI-H460 = tested on: NCI-H460
IGROV-1 = tested on: IGROV-1
UO-31 = tested on: UO-31
Malme-3M = tested on: Malme-3M
LOX IMVI = tested on: LOX IMVI
SW-620 = tested on: SW-620
TK-10 = tested on: TK-10
SN12C = tested on: SN12C
PC-3 = tested on: PC-3
OVCAR-5 = tested on: OVCAR-5

Measured: GI50

Cc1cnc2[nH]c(-c3cccc(Cl)c3)cc(=O)c2c1
inactive: UO-31 1.7 µM | TK-10 22.8 µM
active: SF-268 0.0796 µM | MDA-MB-435 < 0.01 µM | HT-29 0.0392 µM | UACC-257 1.05 µM | HCC 2998 0.101 µM | SF-539 0.0194 µM | OVCAR-8 0.159 µM | COLO 205 0.0807 µM | U-251 0.0484 µM | SK-MEL-28 0.315 µM | NCI-H460 0.0378 µM | IGROV-1 0.292 µM | Malme-3M 0.048 µM | LOX IMVI 0.0438 µM | SW-620 0.0119 µM

COc1c(-c2nc3ccc(N4CCN(C)CC4)cc3[nH]2)cc(OC)c2[nH]c(CO)nc12
inactive: SF-268 > 100 µM | MDA-MB-435 69.5 µM | HT-29 79.8 µM | UACC-257 > 100 µM | SN12C 74.6 µM | SF-539 > 100 µM | OVCAR-8 > 100 µM | COLO 205 82.4 µM | U-251 74.8 µM | PC-3 > 100 µM | SK-MEL-28 > 100 µM | NCI-H460 91 µM | IGROV-1 > 100 µM | UO-31 > 100 µM | Malme-3M > 100 µM | LOX IMVI 88.5 µM | OVCAR-5 > 100 µM | SW-620 74.8 µM | TK-10 > 100 µM

O=C(O)CSc1n[nH]c(=O)[nH]c1=O
inactive: SF-268 > 100 µM | MDA-MB-435 > 100 µM | HT-29 > 100 µM | SN12C > 100 µM | SF-539 > 100 µM | OVCAR-8 > 100 µM | COLO 205 > 100 µM | U-251 > 100 µM | PC-3 > 100 µM | SK-MEL-28 > 100 µM | NCI-H460 > 100 µM | IGROV-1 > 100 µM | UO-31 > 100 µM | Malme-3M > 100 µM | LOX IMVI > 100 µM | OVCAR-5 > 100 µM | SW-620 > 100 µM

c1ccc(C2(c3cc4ccccc4[nH]3)OCCO2)cc1
inactive: SF-268 47 µM | MDA-MB-435 31.4 µM | HT-29 26.1 µM | UACC-257 31.6 µM | SN12C 41.2 µM | SF-539 > 100 µM | OVCAR-8 76.2 µM | COLO 205 27.9 µM | U-251 > 100 µM | PC-3 36.6 µM | SK-MEL-28 28.2 µM | NCI-H460 36.9 µM | IGROV-1 34 µM | UO-31 42.6 µM | LOX IMVI 38 µM | OVCAR-5 30.8 µM | SW-620 24 µM | TK-10 > 100 µM

COc1cc(OC)c2c(c1OC)OCC(Cc1ccc(O)cc1)C2=O (centres undefined)
inactive: SF-268 > 25 µM | MDA-MB-435 > 25 µM | HT-29 > 25 µM | UACC-257 > 25 µM | SN12C > 25 µM | SF-539 > 25 µM | OVCAR-8 > 25 µM | COLO 205 > 25 µM | U-251 > 25 µM | PC-3 > 25 µM | SK-MEL-28 > 25 µM | NCI-H460 > 25 µM | IGROV-1 > 25 µM | UO-31 > 25 µM | Malme-3M > 25 µM | LOX IMVI > 25 µM | OVCAR-5 > 25 µM | SW-620 > 25 µM | TK-10 > 25 µM

C[N+](C)(C)[BH-](Br)C(O)O (centres undefined)
inactive: SF-268 > 100 µM | MDA-MB-435 > 100 µM | HT-29 > 100 µM | UACC-257 > 100 µM | HCC 2998 > 100 µM | SN12C > 100 µM | SF-539 > 100 µM | COLO 205 > 100 µM | U-251 > 100 µM | PC-3 > 100 µM | SK-MEL-28 > 100 µM | NCI-H460 > 100 µM | IGROV-1 > 100 µM | UO-31 > 100 µM | LOX IMVI > 100 µM | OVCAR-5 > 100 µM | SW-620 > 100 µM | TK-10 > 100 µM

O=C1OC(OCC#CCOC2OC(=O)C(Cl)=C2Cl)C(Cl)=C1Cl (centres undefined)
inactive: SF-268 18.2 µM | MDA-MB-435 12.2 µM | HT-29 5.6 µM | UACC-257 15 µM | HCC 2998 2.8 µM | SN12C 17.3 µM | SF-539 16.5 µM | OVCAR-8 4.31 µM | COLO 205 7.41 µM | PC-3 13.7 µM | SK-MEL-28 15.3 µM | NCI-H460 23.6 µM | IGROV-1 12.9 µM | UO-31 11.6 µM | LOX IMVI 2.65 µM | OVCAR-5 16.6 µM | SW-620 4.45 µM | TK-10 9.16 µM

O=c1c(C(c2ccc(O)cc2)c2c(O)oc3ccccc3c2=O)c(O)oc2ccccc12
inactive: SF-268 16.2 µM | MDA-MB-435 98.9 µM | HT-29 97.1 µM | UACC-257 > 100 µM | HCC 2998 46.3 µM | SN12C 56.8 µM | OVCAR-8 48.8 µM | COLO 205 69.8 µM | U-251 34.9 µM | PC-3 > 100 µM | SK-MEL-28 55.5 µM | NCI-H460 > 100 µM | IGROV-1 66.2 µM | UO-31 > 100 µM | Malme-3M 86.9 µM | LOX IMVI 45.2 µM | SW-620 44.5 µM | TK-10 > 100 µM

Source: ChEMBL document CHEMBL1201862, “PubChem BioAssay data set” (2004)
